Measurements as given in patent publication US7776849B2, “Benzenoid ansamycin derivative” (Kyowa Hakko Kirin Co., Ltd., priority 2005, dated 2010).

Assays:
[1] = biological target: T1, Human N-terminal recombinant Hsp90 protein (region of amino acids 9 to 236) (Homo sapiens, UniProt P07900); test: Hsp90 protein binding assay (competition with biotinylated Radicicol, time-resolved fluorescence); details: immobilized Hsp90, biotinylated Radicicol 0.1 μmol/L, 24° C.; read-out: concentration inhibiting the binding of biotinylated Radicicol to the Hsp90 protein by 50% or more
T1 construct: Human N-terminal recombinant Hsp90 protein (region of amino acids 9 to 236); made in house
Description: Hsp90 Protein Binding Assay
Human N-terminal recombinant Hsp90 protein (region of amino acids 9 to 236) prepared according to the method described in “Cell”, 1997, Vol. 89, p. 239-250 was diluted to 1 μg/mL with Tris-buffered saline (TBS, pH 7.5) and added to each well of a 96-well ELISA assay plate (Greiner) in an amount of 70 μL/well. The plate was incubated overnight at 4° C. to obtain the solid phase.
The supernatant was removed, and Tris-buffered saline containing 1% bovine serum albumin (BSA) was added in an amount of 350 μL/well for blocking.
After the blocking solution was removed, each resulting solid phase was washed by the addition of Tris-buffered saline containing 0.05% Tween 20 (TBST) in an amount of 350 μL/well. This washing procedure was repeated three times. […]
Enhancement solution (Wallac Oy) was added thereto in an amount of 100 μL/well and color developing reaction was carried out at room temperature for 5 minutes, followed by measurement of time-resolved fluorescence (excitation wavelength: 340 nm, measurement wavelength: 615 nm) using Multilabel Counter (ARVO 1420, Wallac Oy).
The binding rate in each well treated the test compound was calculated from the time-resolved fluorescence measured for each well based on the time-resolved fluorescence measured with the positive control taken as 100% binding rate and that with the negative control taken as 0% binding rate.

[2] = system: human chronic myelocytic leukemia K562 cells; test: Growth inhibition test on human chronic myelocytic leukemia K562 cells (WST-1); format: cell-based; details: 72 hours, read-out: 50% growth inhibitory concentration (GI50)
Description: Growth Inhibition Test on Human Chronic Myelocytic Leukemia K562 Cells
First, 1,500 cells of human chronic myelocytic leukemia K562 were inoculated into each well of a 96-well microplate (manufactured by Nunc Corp.), and using RPMI1640 medium containing 10% fetal calf serum (FCS), preculturing was performed in a 5% carbon dioxide incubator at 37° C. for 5 hours. A DMSO solution of each test compound prepared in a concentration of 10 mmol/L was stepwise diluted with the culture medium and added thereto in a total amount of 100 μL/well. The resulting wells were further cultured in the 5% carbon dioxide incubator at 37° C. for 72 hours. […] Using a microplate spectrophotometer (SpectraMax 340PC384; manufactured by Molecular Devices), the absorbance of each well was measured at 450 nm and 655 nm. […] The value obtained by subtracting the absorbance at 655 nm from the absorbance at 450 nm (absorbance difference) was calculated for each well. The absorbance difference obtained from cells untreated with any of the test compounds was designated as 100%. The absorbance difference obtained from cells treated with the compounds at the test concentrations was compared. […]

Structure (SMILES)	IC50 [1]	GI50 [2]
COC1/C=C\C=C(/C)C(=O)Nc2cc(O)cc(c2O)C(OC)C(C)CC(OC)C(OC)C(C)/C=C(\C)C1OC(N)=O (stereo not drawn) [Compound 1]	≤ 10 µM	
COC1C=CC=C(C)C(=O)Nc2cccc(c2O)C(OC)C(C)CC(OC)C(OC)C(C)C=C(C)C1OC(N)=O (stereo not drawn) [Compound 2]	≤ 10 µM	≤ 10 µM
